This note sets out measurements from US20040259948A1, “Reciprocal regulation of inflammation and lipid metabolism by liver X receptors” (priority 2003, published 2004).

This assay has as its target T1, LXRβ/RXRα (Homo sapiens, UniProt P55055).
T1 construct: expressed in transfected cells; host or cells: RAW 264.7
T1 sequence (P55055 1-460): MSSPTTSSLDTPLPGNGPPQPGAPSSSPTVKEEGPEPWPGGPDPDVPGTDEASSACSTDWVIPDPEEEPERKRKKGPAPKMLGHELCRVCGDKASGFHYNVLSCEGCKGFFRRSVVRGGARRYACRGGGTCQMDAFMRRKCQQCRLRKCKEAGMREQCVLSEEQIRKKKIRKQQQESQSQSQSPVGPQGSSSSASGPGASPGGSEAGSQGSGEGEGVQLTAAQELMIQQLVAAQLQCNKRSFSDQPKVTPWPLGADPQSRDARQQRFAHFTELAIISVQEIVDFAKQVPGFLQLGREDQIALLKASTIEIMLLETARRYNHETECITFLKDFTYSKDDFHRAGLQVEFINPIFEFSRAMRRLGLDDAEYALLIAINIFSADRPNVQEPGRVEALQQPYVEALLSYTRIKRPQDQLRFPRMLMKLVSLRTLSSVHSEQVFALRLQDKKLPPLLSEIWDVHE
T1 sequence (P19793 1-462 partner): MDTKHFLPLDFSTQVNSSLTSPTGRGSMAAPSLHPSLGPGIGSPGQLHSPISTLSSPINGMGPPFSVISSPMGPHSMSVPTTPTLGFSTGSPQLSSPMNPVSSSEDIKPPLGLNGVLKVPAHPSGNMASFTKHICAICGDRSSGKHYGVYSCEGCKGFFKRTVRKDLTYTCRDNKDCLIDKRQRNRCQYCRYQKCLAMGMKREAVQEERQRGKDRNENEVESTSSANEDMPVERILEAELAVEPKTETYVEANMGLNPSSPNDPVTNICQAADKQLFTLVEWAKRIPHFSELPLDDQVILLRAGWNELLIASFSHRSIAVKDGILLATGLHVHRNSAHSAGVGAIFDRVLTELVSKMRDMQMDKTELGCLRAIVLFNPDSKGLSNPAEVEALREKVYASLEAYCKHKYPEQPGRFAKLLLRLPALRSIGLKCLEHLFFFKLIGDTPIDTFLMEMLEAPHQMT
The experiment in a line: Luciferase reporter transfection in RAW 264.7 cells, LXRβ/RXRα. Format: cell-based. To be noted: 2 μM. The protocol: We next investigated the mechanism by which LXR inhibits iNOS and COX-2 expression. […] RAW 264.7 cells were transfected with expression vectors for either LXRα/RXRα or LXRβ/RXRα along with luciferase reporter constructs. The LXR agonist inhibited expression of both iNOS and COX-2 gene promoters in a receptor-dependent fashion (FIG. 4 A and B). […] E, A dominant-negative IKK expression vector (IKK DN) blocks LXR-dependent repression of the COX-2 promoter. Transfected cells were treated with DMSO (ctrl), GW3965 (GW), LPS, or GW3965 and LPS. […] RAW 264.7 cells were transiently transfected with expression vectors for LXRα/RXRα, LXRβ/RXRα or dominant-negative I kappa B kinase (IKK) along with iNOS (A), COX-2 (B, E, F), NF-κB (C), AP-1 (D) or COX-2/NF-κB mutant (F) luciferase reporters. […] As activation of iNOS and COX-2 gene promoters by LPS is known to depend on interactions between AP-1 and NF-κB transcription factors, the effect of LXR on minimal promoters containing binding sites for these factors was evaluated. […] Moreover, the inhibitory effect of LXR on the COX-2 promoter was lost when NF-κB activity was blocked by transfection of a dominant-negative IKK or when binding sites for NF-κB were mutated (FIGS. 4E and F). These observations indicate that inhibition of inflammatory gene expression by LXR ligands involves antagonism of NF-κB signaling.
Reagents and plasmids. […] Oxysterols, LDL and ox-LDL were from Sigma and Intracell, respectively. LPS from Salmonella typhimurium was from Sigma. Expression plasmids for LXRα, LXRβ and IKK-DN (Castrillo, A. et al. 2001 J Biol Chem 276:15854-15860; Laffitte, B. A. et al. 2001 Mol Cell Biol 21:7558-7568), and reporter plasmids for NOS-2, (NFκB)3-LUC, (AP-1)4-LUC and COX-2 have been described (Callejas, N. A. et al. 2000 Gastroenterology 119:493-501).
Cell culture and transfections. Thioglycolate-elicited peritoneal macrophages were cultured in RPMI containing 10% fetal bovine serum (FBS). […] NO production was determined spectrophotometrically (Castrillo, A. et al. 2000 Mol Cell Biol 20:1692-1698).
On the technique in general: In a reporter assay the amount or activity of a reporter protein is the signal.

With `O=C(O)Cc1cccc(OCCCN(Cc2cccc(C(F)(F)F)c2Cl)CC(c2ccccc2)c2ccccc2)c1` [GW3965], the “induction of the COX-2 promoter by LPS (luciferase reporter)” value is “inhibits induction” and the “induction of the iNOS promoter by LPS (luciferase reporter)” value is reported as “inhibits induction”. The “luciferase reporter containing multiple NF-κB binding sites” value (LPS) was “inhibits expression”.
